Experimental data reported in patent US4327114A, “Substituted 1,8-dihydroxy-9-(10H)anthracenones” (Boehringer Ingelheim GmbH, priority 1980, dated 1982).

Columns and labels:
skin [1] = conditions: literature or prior use; cited from earlier work
[2] = molecular target: glucose-6-phosphate-dihydrogenase; assay: Inhibition of glucose-6-phosphate-dihydrogenase after 120 minutes incubation; assay type: biochemical; conditions: 37° C., pH 7.6, REED and MUENCH
Description: The inhibiting effect upon enzymes was determined by measurement of the inhibition of glucose-6-phosphate-dihydrogenase.
The following equilibrium was observed: [drawing 5] (NADP-nicotinamide-adenine-dinucleotide-phosphate). The rate of formation of NADPH is a measure of the enzyme activity; it can be measured by means of the increase in extinction at […] per unit of time.
0.025 ml of glucose-6-phosphate-dihydrogenase were diluted to 10 ml with distilled water (Solution I). 100 mg of nicotinamide-adenine-dinucleotide-phosphate were dissolved in 13 ml of distilled water (Solution II). 47.2 mg of glucose-6-phosphate were dissolved in another 10 ml of distilled water (Solution III). Besides this, a buffer solution (Solution IV) was prepared as follows:
0.28 gm of triethanolamine hydrochloride and 1.461 gm of ethylene-diamine tetraacetic acid disodium salt were dissolved in 1 liter of distilled water, and the solution was adjusted to pH 7.6 with sodium hydroxide. The substance to be tested was dissolved in dimethyl formamide or ethanol (Solution V). Tested end-concentrations: 25, 12.5, 6.25, 3.125, 1.56 and 0.78 μg/ml.
A mixture of 0.1 ml of Solution I, 0.1 ml of Solution II, 2.67 ml of Solution IV and 0.03 ml of Solution V was kept at 37° C. for 120 minutes. After addition of 0.1 ml of Solution III and thorough mixing, the change in extinction was measured photometrically at 366 nm over 3 minutes. The inhibition values were calculated from the average values of 3 measurements (as change of extinction per minute), compared to controls to which the pure solvent was added as inhibitor solution. The ED50 was calculated according to the method of REED and MUENCH from the inhibiting values of the different concentrations. The following table contains the values thus determined: […]

mouse = assay: Acute toxicity in the mouse; assay type: in vivo
Description: (§1) The acute toxicity was determined in the mouse and in the rat. Determined was the LD50, i.e. the dose after administration of which 50% of the animals died within 14 days, or it was determined how many of the 10 treated animals died within the period of observation.

skin of guinea pigs = assay: Skin compatibility test on guinea pigs; assay type: in vivo, guinea pig (Perbright White strain); conditions: for Sum of the reactions divided by the number of animals: score 0 no irritation to 3 very strong erythema; for skin compatibility compared with compound A: Table 3
Description: Guinea pigs of the Perbright White strain, with a body weight of about 350 gm, were fed with standard guinea pig feed (Altromin 3022) and water ad lib.
During the test, the animals were kept in single cages. The test substances, which were dissolved in a well compatible solvent, were applied to the skin of the animals (diameter of the test area 3.5 cm) daily for 3 weeks, from Monday to Friday. The animals were shaved each Monday, Wednesday and Friday in the early morning, the treatment with the test substances was performed in the early afternoon. Immediately before administration of the substance, the skin reaction was tested. The evaluation was carried out visually, and erythema, edema, and mycosis of the skin were considered.
The following evaluation was made:
2: strong erythema with beginning edema
3: very strong erythema with edema or beginning necrosis.
The numerical sum of the reactions was used for the total evaluation of a group of animals.

guinea pigs = assay: Sensitizing activity on guinea pigs; assay type: in vivo, guinea pig (Perbright White strain); conditions: 1:10 to 1:50 of the original concentrations, behind the ears
Description: The sensitizing activity was tested 2 weeks after the skin compatibility test with 1:10 to 1:50 of the originally used concentrations behind the ears.

skin [3] = assay: Skin compatibility under occlusion, method of Mustakallio; assay type: in vivo; conditions: 4 to 128 mmols in white vaseline, after 4 and after 16 hours of occlusion
Description: In a further test, according to the method of Mustakallio, compound A was applied at concentrations of 1, 2, 4, 8, 16, 32 mmols in white vaseline and allowed to remain on the skin for 4 hours under occlusion. Compounds C and K, however, were applied at concentrations of 4, 8, 16, 32, 64, 128 mmols, also in white vaseline, and allowed to remain on the skin for 16 hours under occlusion. […] This means that the novel compounds are more compatible by a factor of at least 64.

[4] = Penetration and metabolization in the skin in vitro; assay type: in vitro ADME, pig; conditions: thin-layer chromatography; for penetration into the layers of the skin: same carriers
[5] = Natural color of the substance (UV-absorption, FIG. 1); assay type: physicochemical; conditions: shortwave portion of visible light, beginning at 380 nm
Source text: Topically administrable substances which are colored are undesirable for cosmetic reasons and also because the lingerie may become soiled. […] This is also expressed by the optic impression of the preparations. […] This is a further advantage compared with dithranol.

[6] = test system: skin (forearms of volunteer human test subjects); assay: Orienting skin compatibility in humans (ointments on forearm); assay type: in vivo; conditions: 0.44% ointment, 16 hours, doubled to 0.88% after 3 days if no reaction
Description: Ointments, each containing individually 0.44% of compounds […] and K were applied to the forearms of volunteer human test subjects, covered with bandage gauze and allowed to remain on the skin for 16 hours. After 16 hours the ointments were washed off with soap solution, and the skin irritation and discoloration, if any, were evaluated visually and photographed. Then, the test ointments were again administered and allowed to remain on the skin until the next day. Again, the reactions were evaluated and a new treatment was started.

psoriasis = conditions: cited from earlier work; for antipsoriatic activity: literature or prior use
[7] = Acute toxicity in the mouse; assay type: in vivo; conditions: in vivo, ip, within 14 days
Description: as §1

[8] = Acute toxicity in the rat; assay type: in vivo; conditions: in vivo, ip, within 14 days
Description: as §1

rat = assay: Acute toxicity in the rat; assay type: in vivo; conditions: 2000 mg/kg
Description: as §1

Compound: CC(=O)C1c2cccc(O)c2C(=O)c2c(O)cccc21 [10-Acetyl-dithranol]
- skin irritation and/or discoloration (skin [1]): discolored and irritated the skin at concentrations from 0.5% even more than the starting compound

Compound: CC(C)(C)c1ccc2c(c1O)C(=O)c1c(ccc(C(C)(C)C)c1O)C2 [Compound K, 2,7-Di-tert. butyl-1,8-dihydroxy-9-(10H)anthracenone]
- ED50, inhibition of incubation after 120 minutes [2]: 7.77 µg/mL
- Number of dead animals (mouse; i.p., 1000 mg/kg): 0/10
- Number of dead animals (mouse; p.o., 4000 mg/kg): 0/10
- Number of dead animals (mouse; sc., 1000 mg/kg): 0/10
- Sum of the reactions divided by the number of animals (skin of guinea pigs; 0.03%, end of 1st week): 0.00
- Sum of the reactions divided by the number of animals (skin of guinea pigs; 0.03%, end of 2nd week): 0.042
- Sum of the reactions divided by the number of animals (skin of guinea pigs; 0.03%, end of 3rd week): 0.00
- skin compatibility compared with compound A (skin of guinea pigs): considerably more skin-compatible than compound A
- sensitization (guinea pigs): no sensitization
- skin irritations or discolorations (skin [3]): no skin irritations or discolorations could be observed
- penetration into the layers of the skin [4]: penetrate to an approximately equal extent
- metabolization in the skin [4]: metabolized in a similar manner
- UV-absorption / yellow color [5]: significantly less UV-absorption

Compound: CC(C)c1cc(C(C)C)c2c(c1O)C(=O)c1c(O)cccc1C2 [G, 1,8-Dihydroxy-2,4-diisopropyl-9-(10H)anthracenone]
- ED50, inhibition of incubation after 120 minutes [2]: 5.67 µg/mL
- discoloration of the skin [6]: no skin irritation or discoloration of the skin
- skin irritation [6]: no skin irritation
- penetration into the layers of the skin [4]: penetrate to an approximately equal extent
- metabolization in the skin [4]: metabolized in a similar manner

Compound: O=CCCC1(CCC=O)c2cccc(O)c2C(=O)c2c(O)cccc21 [bis-(formylethyl)-dithranol]
- antipsoriatic activity (psoriasis): did not exhibit any antipsoriatic activity
- skin irritation and/or discoloration (skin [1]): no irritation and discoloration

Compound: CC(C)c1ccc(O)c2c1Cc1cccc(O)c1C2=O [Compound F, 1,8-Dihydroxy-4-isopropyl-9-(10H)anthracenone]
- ED50, inhibition of incubation after 120 minutes [2]: 5.35 µg/mL
- LD50 at 336 h [7]: 52 mg/kg
- Number of dead animals (mouse; p.o., 2000 mg/kg): 0/10
- Number of dead animals (mouse; sc., 2000 mg/kg): 0/10
- LD50 at 336 h [8]: 45 mg/kg
- Number of dead animals (rat; p.o.): 0/10
- Number of dead animals (rat; sc.): 0/10
- Sum of the reactions divided by the number of animals (skin of guinea pigs; 0.015%, end of 1st week): 0.085
- Sum of the reactions divided by the number of animals (skin of guinea pigs; 0.015%, end of 2nd week): 0.085
- Sum of the reactions divided by the number of animals (skin of guinea pigs; 0.015%, end of 3rd week): 0.085
- Sum of the reactions divided by the number of animals (skin of guinea pigs; 0.045%, end of 1st week): 0.085
- Sum of the reactions divided by the number of animals (skin of guinea pigs; 0.045%, end of 2nd week): 0.085
- Sum of the reactions divided by the number of animals (skin of guinea pigs; 0.045%, end of 3rd week): 0.085
- skin compatibility compared with compound A (skin of guinea pigs): considerably more skin-compatible than compound A
- sensitization (guinea pigs): no sensitization
- discoloration of the skin [6]: no skin irritation or discoloration of the skin
- skin irritation [6]: no skin irritation

Compound: CC(C)(C)c1ccc2c(c1O)C(=O)c1c(O)cccc1C2 [D, 2-tert. Butyl-1,8-dihydroxy-9-(10H)anthracenone]
- ED50, inhibition of incubation after 120 minutes [2]: 6.32 µg/mL
- Sum of the reactions divided by the number of animals (skin of guinea pigs; 0.03%, end of 1st week): 0.083
- Sum of the reactions divided by the number of animals (skin of guinea pigs; 0.03%, end of 2nd week): 0.042
- Sum of the reactions divided by the number of animals (skin of guinea pigs; 0.03%, end of 3rd week): 0.00
- skin compatibility compared with compound A (skin of guinea pigs): considerably more skin-compatible than compound A
- sensitization (guinea pigs): no sensitization
- discoloration of the skin [6]: no skin irritation or discoloration of the skin
- skin irritation [6]: no skin irritation

Compound: Cc1cc(O)c2c(c1)Cc1cccc(O)c1C2=O [Compound B, 1,8-Dihydroxy-3-methyl-9-(10H)-anthracenone, reference compound]
- ED50, inhibition of incubation after 120 minutes [2]: 6.86 µg/mL
- discoloration of the skin [6]: skin discoloration similar to compound A

Compound: O=C1c2c(O)cccc2Cc2c(Cl)ccc(O)c21 [H, 4-Chloro-1,8-dihydroxy-9-(10H)anthracenone]
- ED50, inhibition of incubation after 120 minutes [2]: 3.85 µg/mL

Compound: CC(=O)Oc1cccc2cc3cccc(OC(C)=O)c3c(OC(C)=O)c12 [dithranol triacetate, 1,8,9-Triacetoxyanthracene]
- antipsoriatic activity (psoriasis): less active than dithranol
- therapeutic index (psoriasis; literature, compared with dithranol): a real improvement of the therapeutic index could not be obtained
- skin irritation and/or discoloration (skin [1]): less skin irritation

Compound: O=C1c2c(O)cccc2Cc2ccc(C3CCCCC3)c(O)c21 [Compound I, 2-Cyclohexyl-1,8-dihydroxy-9-(10H)anthracenone]
- ED50, inhibition of incubation after 120 minutes [2]: 3.94 µg/mL

Compound: CCCCC(C)c1ccc2c(c1O)C(=O)c1c(O)cccc1C2 (centres unmarked) [E, 2-(2-Hexyl)-1,8-dihydroxy-9-(10H)anthracenone]
- ED50, inhibition of incubation after 120 minutes [2]: 3.61 µg/mL
- discoloration of the skin [6]: no skin irritation or discoloration of the skin
- skin irritation [6]: no skin irritation
